The results in this text go back to a melting point compilation (Tetko et al.; mined from patent text by program, amines drawn as free bases though some values may be those of a salt).

The melting point is the temperature of the solid-liquid transition. Turning to `O=C(C=C1OC(=O)c2ccccc21)c1ccc(Cl)cc1`, the melting point fell in the range of 158 to 159 °C. With `COc1c(Cl)cc(N)cc1Cl`, the melting point was 80 to 81 °C. Next, `O=C1Nc2cccc(-c3ccc(O)cc3)c2/C1=C/c1ccc[nH]1`: 271 to 273 °C. Next, `C/C(=C\c1ccc(Cc2cccnc2)cc1)C(=O)Oc1ccccc1`: 52 to 53 °C. Next, `CC1(C)OCCCOc2c[nH]cc2OCCCOC1(C)C`: 48 to 50 °C; `CCCOc1ccc(S(=O)(=O)N2CCN(CC)CC2)cc1-c1nc2cc(N)c(N)cc2c(=O)[nH]1`: 183 to 186 °C; `CCN(CCCCC1CCN(C(c2ccccc2)c2ccccc2)CC1)C(=O)C=Cc1cccnc1`: 115 to 117 °C. The molecule `COc1ccc(C2(O)OC(=O)C(c3ccc4nsnc4c3)=C2Cc2cc(OC)c(OC3CCCC3)c(OC)c2)cc1` (configuration not stated) had a melting point of 40 to 41 °C. In the case of `NC1CCN(c2nc(Nc3ccc(F)cc3F)c(C(=O)O)cc2F)C1` (configuration not stated), the melting point was 249 to 250 °C. Next, `CCc1cccc(CC)c1N(CCCC(=O)O)C(=O)CCN(C(C)=O)c1c(C)cccc1C`: 110 to 111 °C; `CCCCCCCCCC(O)C#CC(=O)O` (configuration not stated): 65 to 66 °C. In the case of `Cc1oc(-c2ccccc2)nc1CCOc1ccc(C=O)c2sccc12`, the melting point worked out at 154 °C. In the case of `C=CCNCCC(OC)(c1ccccc1)c1ccccc1`, the melting point was in the range of 40 to 50 °C. With `CCN(CC)C(=O)COC(=O)CCc1cc(S(C)(=O)=O)cc(-c2nc(=O)c3ccc(Cl)cc3s2)n1`, the melting point was in the range of 179 to 180 °C. The result for `CCCc1nn(C)c2c(=S)[nH]c(-c3cc(S(=O)(=O)N4C[C@@H](C)N[C@@H](C)C4)ccc3OCC)nc12` reads 196 to 199 °C; that for `COc1cc(C(=O)N2Cc3ccc(C(=O)NCc4cccc(C)c4)n3Cc3ccccc32)ccc1-c1ccccc1C`, 165 to 166 °C. The result for `CC12C=CC(O)CC1=CCC1C2CCC2(C)C1CCC21OCCO1` (configuration not stated) reads 138 to 140 °C.

For `CC(C)NC(=O)C1c2cc(NC(=O)c3cc(C(F)(F)F)nn3-c3ncccc3Cl)c(Cl)cc2CC1F` (configuration not stated), the melting point is 98 to 99 °C.

Take `N#CNC(=O)c1cc2cc(N3CCN(CCCCc4c[nH]c5ccc(C#N)cc45)CC3)ccc2o1`: the melting point came out at 190 °C. Next, `Nc1c(Cl)cc(C(O)CNCCCCCCOCCCc2ccc(Br)cn2)cc1Cl` (configuration not stated): 52 to 55 °C; `COC1CCC2(C)C(=CCC3C2CCC2(C)C(C(C)=O)CCC32)C1` (configuration not stated): 123 to 124 °C; `CC1CN(c2ccc(NC=C3C(=O)NC(=O)c4ccc(Br)cc43)cc2)CC(C)N1` (configuration not stated): 229 to 230 °C. In the case of `CS(=O)(=O)Nc1ccc(NC(=O)CN2CCC(Cc3ccc(F)cc3)CC2)cc1`, the melting point lay in the range of 169 to 171 °C.

In turn, `CCc1cn(C(CC)C(=O)N(C)C)nc1-c1ccccc1Cl` (configuration not stated) came in with a melting point of 60 to 63 °C. The result for `O=C1CCc2cc(Br)c3c(c21)CCO3` reads 149 to 150 °C; that for `Cc1cc(-c2c(F)cc3c(=O)c(C(=O)O)cn4c3c2SC[C@@H]4C)cc(C)n1`, 328 to 331 °C; that for `CC(=O)OCc1cc(=O)c(Oc2ccc(F)cc2F)c(-c2ccc(S(C)(=O)=O)cc2)o1`, 175 °C. On to `CCOc1nc(Br)cnc1N`, for which the melting point amounted to 84 °C. Next, `CC1(C)N=C(S)N=C(N)N1`: 186 to 188 °C; `CC1C(OC(=O)CCCCCCCCC(=O)OC2C(C)C(c3ccccc3)N(O)C(c3ccccc3)C2C)C(C)C(c2ccccc2)N(O)C1c1ccccc1` (configuration not stated): 190 to 191 °C. Next, `O=C(O)CSc1nc(-c2ccccc2)c(-c2ccccc2)o1`: 66 to 68 °C; `COC(=O)CCC#Cc1cc(Cl)ccc1NS(=O)(=O)c1ccc(C(C)=O)cc1`: 88 °C. The result for `CCOC(=O)C1=C(C)NC(C)=C(C(=O)OCC)C1c1ccccc1S(C)=O` (configuration not stated) reads 232 to 233 °C. In the case of `COc1cc(=O)n(-c2cccc(C(F)(F)F)c2)nc1C(=O)N(C)OC`, the melting point was in the range of 127 to 129 °C. The result for `Cc1c(NC(=O)CCCC(=O)c2ccc(F)cc2)ccc2cc(CN3CCCC3)cnc12` reads 170 to 171 °C; that for `COc1cc2c3c(c1)c(N)c(C(=O)N1CCc4ccccc41)c(=O)n3CCO2`, 130 to 140 °C. `CCCCOc1c(CO)n(CC2CC2)c(=O)c2ccc(OCc3ccccc3)cc12`: the melting point is 96 to 97 °C.

In turn, `C(CCc1cncn1Cc1ccccc1)=C(c1ccccc1)c1ccccc1` came in with a melting point of 161 to 168 °C. The result for `COc1ncc(-c2nn(C(C)c3oc4ccccc4c(=O)c3-c3cccc(F)c3)c3ncnc(N)c23)cn1` (configuration not stated) reads 224 to 227 °C; that for `CCc1ccc2oc(C(=O)Nc3ccc(-c4ccc(S(=O)(=O)NC(C(=O)OC)C(C)C)cc4)cc3)c(C)c2c1OC(C)C` (configuration not stated), 182 to 184 °C.

`CCOC(=O)c1c(CN(CC)CC)nc2sc3c(c2c1-c1ccc(Cl)cc1)CCN(C(=O)c1ccccc1)C3`: the melting point was 177 to 178 °C. The result for `CC(C(=O)c1ccc(O)cc1)N1CCC(O)(c2ccccc2)CC1` (configuration not stated) reads 95 to 97 °C; that for `Cc1nc(N2CCN(Cc3ccccc3)C2=O)sc1C(=O)NCc1cccc(Cl)c1`, 178 to 179 °C. `O=C(N[C@@H](Cc1ccccc1)C(=O)On1nnc2ccccc21)OCc1ccccc1` showed a melting point of 120 to 125 °C. Next, `CC(C)CN(Cc1ccccc1)c1ncnc2nc[nH]c12`: 160 to 162 °C; `C#CCCCC(=O)Nc1nc2nn(C)cc2c2nc(-c3ccco3)nn12`: 210 to 216 °C; `CCCCOC(=O)Cc1nc(-c2ccccc2)oc1-c1ccsc1`: 71 to 72 °C. Next, `O=C1C=CC(O)(c2nccs2)C=C1`: 138 to 139 °C; `N#Cc1cc(C2=NOC(c3cc(Cl)cc(Cl)c3)(C(F)(F)F)C2)ccc1-n1cncn1` (configuration not stated): 118 to 125 °C.

For the molecule `COC(=O)c1cc(C(=O)O)c2c(Cl)cc(Cl)cc2n1`, the melting point lay in the range of 260 to 262 °C. Molecule `CC1(C)Oc2ccc(Cl)cc2C(CS(=O)(=O)NCC(=O)NCCc2ccccc2)C1O` (configuration not stated) had a melting point of 168 to 170 °C. Next, `CCOC(=O)c1cnc2ccc(C#N)cc2c1NCc1ccc(OC)c(Cl)c1`: 161 to 162 °C. The result for `C=CCOc1ccc2ccc(O)cc2c1` reads 78 to 80 °C.

Consider `O=C(Nc1ccc(C(=O)O)cc1)OCc1cn(-c2cc3cc(C(=O)O)c(=O)[nH]c3cc2C(F)(F)F)cn1`, for which the melting point was in the range of 218 to 220 °C. Next, `O=C1OCCC1=Cc1ccccc1OCC1CO1` (configuration not stated): 68 to 70 °C; `COCc1c(C(=O)OC(C)C)ncc2[nH]c3cccc(Cc4ccccc4Cl)c3c12`: 187 to 189 °C; `COCc1nc2c(C(F)(F)F)cccc2c(=O)o1`: 104 to 106 °C. The result for `CC(=O)OC1CCC2(C)C(=CCC3C2CCC2(C)C(n4ccnc4)=C(C=O)CC32)C1` (configuration not stated) reads 218 to 220 °C; that for `CC(=O)NCC1(N2CCCCC2)CCCCC1`, 104 °C; that for `Cc1ccc(C(=O)O)c2c1CCCO2`, 140 °C.

`Cc1c(OCc2ccccc2)ccc2c(=O)cc(N3CCN(c4ccccn4)CC3)oc12` registered a melting point of 148 to 149 °C.

`COCc1cc(-c2cc3c(cc2F)c(=O)c(C(=O)O)cn3C2CC2)cc(C)n1` displayed a melting point of 192 to 193 °C.

The molecule `CC1(c2cccs2)Cc2cc(O)c(Cl)c(Cl)c2C1=O` (configuration not stated) yielded a melting point of 224 to 226 °C. Next, `O=C(CS(=O)Cc1cccs1)C12CC3CC(CC(C3)C1)C2` (configuration not stated): 95 to 98 °C; `CCN1C(=O)c2cscc2Nc2ccccc21`: 175 to 177 °C; `CCOC(=O)c1ccc(SC)cc1C(=O)OCC`: 178 to 181 °C. The result for `O=CN1CCC(C(=O)N2CCN3C(=O)OC(c4ccccc4)(c4ccccc4)C3C2)CC1` (configuration not stated) reads 133 to 136 °C; that for `CC(C)c1cc(O)n[nH]1`, 189 to 193 °C. The result for `CN(c1ccc(O)cc1)c1cc2ccc(Cl)cc2cn1` reads 140 °C; that for `Clc1ccc(O[C@@H]2CCNC[C@H]2c2ccccc2)cc1` (relative stereo), 102 to 103 °C. `O=C(O)c1ccc(OC(F)F)c2oc3ccc([N+](=O)[O-])cc3c12` gave a melting point greater than 270 °C. Next, `CC1=CC2CC(O)CCC2(C)C2=C1C1CCC(C(C)CCCC(C)C)C1(C)CC2` (configuration not stated): 112 to 113 °C. Next, `O=C(Cl)c1ccc(Cl)cc1[N+](=O)[O-]`: 95 to 96 °C; `CCCCCC(=O)NC(=O)N1CC1C#N` (configuration not stated): 143 to 144 °C; `NC(=O)N(O)Cc1ccc(OCCc2csc(-c3ccc(C(F)(F)F)cc3)n2)cc1`: 146 to 147 °C. On to `CC(C)CC(COc1ccc(-c2ccc(C#N)cc2)cc1)N(O)C=O` (configuration not stated), for which the melting point fell in the range of 112 to 113 °C.

In turn, `CCN(CC)CCC1CCc2cc(O)ccc2C1` (single isomer, unassigned; (+)) had a melting point of 102 to 104 °C. `N#Cc1c(N2CCN(C(=O)c3cccs3)CC2)c2cc(Cl)cnc2[nH]c1=O`: the melting point was found to be 158 °C.

For the molecule `Clc1ncnc2c1N(C1CC=CC1)CN2`, the melting point lay in the range of 124 to 126 °C. The result for `O=C(CCCN1CCN(c2noc3cc(OC(=O)C45CC6CC(CC(C6)C4)C5)ccc23)CC1)c1ccc(F)cc1` reads 157 to 158 °C; that for `CNc1ccc(Sc2nnnn2C)c2cc(-c3nccs3)[nH]c12`, 211 °C. As for `Cc1nn(CCC(C)C)c(C)c1CC(=O)O`, the melting point fell in the range of 135 to 136 °C. The result for `O=C(O)c1ccc2sc3ccccc3c2c1` reads 281 to 283 °C. Next, `COc1cc(OC)c2c(=O)[nH]c(-c3ccc4[nH]c(CN(C)C)cc4c3)nc2c1`: 187 to 188 °C; `COc1ccc(C2=NNC(N)(C3CCN(Cc4ccccc4)CC3)c3cc(OC)ccc32)cc1` (configuration not stated): 150 °C. Next, `COc1ccc(-n2c(C)ccc2-c2ccc(S(N)(=O)=O)cc2)cc1`: 196 to 197 °C; `COc1nc(C)cnc1NS(=O)(=O)c1ccccc1-c1ccc(CC(C)(C)C(=O)O)cc1`: 202 to 204 °C.
